How the values were obtained:
SMARCA2 = SMARCA2 (Homo sapiens, UniProt P51531); assay: MSD SMARCA2 degradation in A549 cell line; assay type: cell-based; conditions: 24 h; for Dmax: A549, A549 cells; for DC50: A549 cells, read-out: SMARCA2 MSD A549 degradation 24 h: Average external-Abs DC50
Summary of the method: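 SMARCA2 remaining was measured by MSD electrochemiluminescence on RIPA lysates (anti-SMARCA2 plus SULFO-TAG anti-rabbit). Prior exposure: 24 h of A549 cells to a 10-point, 3-fold dilution series topping at 1000 nM final; Dmax % given as graded codes.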

SMARCA4 = molecular target: T1, SMARCA4 (Homo sapiens, UniProt P51532); assay: SMARCA4 Western blot MV4-11 degradation; assay type: cell-based; conditions: 24 h; for Dmax: MV4-11, MV4-11 cells, read-out: SMARCA4 WB MV411 degradation 24 h: Average Dmax %; for DC50: MV4-11 cells, read-out: SMARCA4 WB MV411 degradation 24 h: Average external-Abs DC50
T1 construct: SMARCA2 and SMARCA4 protein degradation in MV4-11 cells; endogenous in cells; host or cells: MV4-11
T1 sequence (P51532 whole entry): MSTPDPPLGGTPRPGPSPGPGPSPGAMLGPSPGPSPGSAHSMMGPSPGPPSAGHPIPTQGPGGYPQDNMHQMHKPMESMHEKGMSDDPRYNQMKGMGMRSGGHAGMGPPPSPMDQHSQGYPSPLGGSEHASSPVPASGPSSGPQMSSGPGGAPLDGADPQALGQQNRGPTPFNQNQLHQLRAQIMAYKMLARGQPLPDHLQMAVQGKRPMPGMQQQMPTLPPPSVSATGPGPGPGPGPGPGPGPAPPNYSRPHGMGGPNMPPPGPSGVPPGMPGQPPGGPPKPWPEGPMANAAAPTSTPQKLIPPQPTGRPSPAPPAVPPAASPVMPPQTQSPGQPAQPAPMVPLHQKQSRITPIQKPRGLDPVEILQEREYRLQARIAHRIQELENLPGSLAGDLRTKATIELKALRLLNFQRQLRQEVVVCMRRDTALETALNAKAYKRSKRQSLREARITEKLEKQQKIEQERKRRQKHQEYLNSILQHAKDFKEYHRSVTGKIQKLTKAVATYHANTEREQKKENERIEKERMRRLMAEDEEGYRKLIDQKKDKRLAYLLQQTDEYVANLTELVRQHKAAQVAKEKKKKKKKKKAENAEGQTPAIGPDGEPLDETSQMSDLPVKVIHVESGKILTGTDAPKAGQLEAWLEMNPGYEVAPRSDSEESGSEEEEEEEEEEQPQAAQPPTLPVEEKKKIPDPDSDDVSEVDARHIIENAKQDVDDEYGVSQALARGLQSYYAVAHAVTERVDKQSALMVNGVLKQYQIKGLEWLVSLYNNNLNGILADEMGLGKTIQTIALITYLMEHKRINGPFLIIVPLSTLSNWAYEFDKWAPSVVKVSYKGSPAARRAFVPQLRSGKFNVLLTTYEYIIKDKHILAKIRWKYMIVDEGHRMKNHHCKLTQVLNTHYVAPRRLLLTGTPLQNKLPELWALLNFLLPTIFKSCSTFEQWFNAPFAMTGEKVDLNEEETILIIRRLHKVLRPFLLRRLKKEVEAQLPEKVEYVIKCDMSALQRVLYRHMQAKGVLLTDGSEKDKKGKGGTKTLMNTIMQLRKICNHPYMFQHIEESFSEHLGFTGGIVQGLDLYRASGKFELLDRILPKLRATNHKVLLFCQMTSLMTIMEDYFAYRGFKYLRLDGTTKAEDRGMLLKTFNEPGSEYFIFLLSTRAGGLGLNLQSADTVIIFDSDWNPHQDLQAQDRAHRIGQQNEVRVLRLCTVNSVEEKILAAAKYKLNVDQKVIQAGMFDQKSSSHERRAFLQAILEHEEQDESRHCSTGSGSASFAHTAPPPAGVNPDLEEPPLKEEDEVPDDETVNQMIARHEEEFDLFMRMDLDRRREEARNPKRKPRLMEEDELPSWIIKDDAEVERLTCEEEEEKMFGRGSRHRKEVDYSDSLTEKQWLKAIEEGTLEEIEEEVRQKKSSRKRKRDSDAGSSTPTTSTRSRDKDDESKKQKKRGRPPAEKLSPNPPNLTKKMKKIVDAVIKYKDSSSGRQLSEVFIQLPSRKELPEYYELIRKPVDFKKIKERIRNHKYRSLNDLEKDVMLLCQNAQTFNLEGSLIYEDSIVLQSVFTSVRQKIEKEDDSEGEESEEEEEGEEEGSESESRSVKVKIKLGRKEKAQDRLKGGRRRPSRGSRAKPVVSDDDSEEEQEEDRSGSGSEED
Method: Cells were seeded into 6-well plates (MV4-11: 4×10^6 cells/well/1 ml) and 1 ml of 2× compound solution was added into the well to make the final concentration and the plates were mixed well and incubated for 24 hours (No cytotoxicity was observed). The cell were collected with media and spun at 3000 rpm for 5 minutes. The supernatant was aspirated and the well and the cells were washed with cold PBS once and combined for centrifugation again; the supernatant aspirated again. 200 ul pre-chilled RIPAlysis buffer (Boston BioProducts BP-115D) with protease/phosphatase inhibitor (Roche 05892791001/Roche 04906837001) was directly added into the tube to lyze the cells for 20 minutes on ice. The cell lysate were collected into EP tubes and spun at 13000 rpm for 20 minutes and 72 ul supernatant was transferred to a fresh EP tube containing 18 ul of 5× loading buffer (Beyotime Bio P0015) to make the loading samples. The samples were heated to 100° C. for 10 minutes and cooled to RT and microcentrifuged. 20 ul of samples were loaded onto SDS-PAGE gel (Novex, WG1402BOX) and the gel was run at 80 V for 20 minutes and 120 V for 1.5 hours. The samples were electrotransfer to a NC membrane using wet-transfer method with 250 mA for 2.5 hours. The membrane was blocked with LICOR blocking buffer (LI-COR, 927-50000) for 1 hour. The membrane was washed three times with TBST (CST #9997S), 5 minutes each. Incubation was performed with primary antibody prepared in blocking buffer with 0.1% Tween-20 (Solarbio, P8220) at 4° C. overnight (Anti-SMARCA2/BRM antibody (ab15597) 1:500; Anti-BRG1 antibody [EPR3912] (ab108318) 1:1000; Rabbit anti-Baf180 antibody [EPR15860] (Abcam, ab196022) 1:1000; mouse anti-beta-Actin (8H10D10) (CST #3700) 1:10000). The membrane was washed three times with TBST, 5 minutes each. Incubation with secondary antibody was performed for 1 hour at RT (anti-rabbit IgG (Licor, 926-32211) 1:5000; anti-mouse IgG (LI-COR, 926-68070) 1:5000). The membrane was washed three times with TBST, 5 minutes each and lastly the LiCOR was read.
The letter codes for the percentage of SMARCA degradation after 24 hours (Dmax %) include: A (>90% degradation), B (>70-90% degradation), C (50-70% degradation), and D (<50% degradation).

Chain of SMARCA2 (P51531 whole entry): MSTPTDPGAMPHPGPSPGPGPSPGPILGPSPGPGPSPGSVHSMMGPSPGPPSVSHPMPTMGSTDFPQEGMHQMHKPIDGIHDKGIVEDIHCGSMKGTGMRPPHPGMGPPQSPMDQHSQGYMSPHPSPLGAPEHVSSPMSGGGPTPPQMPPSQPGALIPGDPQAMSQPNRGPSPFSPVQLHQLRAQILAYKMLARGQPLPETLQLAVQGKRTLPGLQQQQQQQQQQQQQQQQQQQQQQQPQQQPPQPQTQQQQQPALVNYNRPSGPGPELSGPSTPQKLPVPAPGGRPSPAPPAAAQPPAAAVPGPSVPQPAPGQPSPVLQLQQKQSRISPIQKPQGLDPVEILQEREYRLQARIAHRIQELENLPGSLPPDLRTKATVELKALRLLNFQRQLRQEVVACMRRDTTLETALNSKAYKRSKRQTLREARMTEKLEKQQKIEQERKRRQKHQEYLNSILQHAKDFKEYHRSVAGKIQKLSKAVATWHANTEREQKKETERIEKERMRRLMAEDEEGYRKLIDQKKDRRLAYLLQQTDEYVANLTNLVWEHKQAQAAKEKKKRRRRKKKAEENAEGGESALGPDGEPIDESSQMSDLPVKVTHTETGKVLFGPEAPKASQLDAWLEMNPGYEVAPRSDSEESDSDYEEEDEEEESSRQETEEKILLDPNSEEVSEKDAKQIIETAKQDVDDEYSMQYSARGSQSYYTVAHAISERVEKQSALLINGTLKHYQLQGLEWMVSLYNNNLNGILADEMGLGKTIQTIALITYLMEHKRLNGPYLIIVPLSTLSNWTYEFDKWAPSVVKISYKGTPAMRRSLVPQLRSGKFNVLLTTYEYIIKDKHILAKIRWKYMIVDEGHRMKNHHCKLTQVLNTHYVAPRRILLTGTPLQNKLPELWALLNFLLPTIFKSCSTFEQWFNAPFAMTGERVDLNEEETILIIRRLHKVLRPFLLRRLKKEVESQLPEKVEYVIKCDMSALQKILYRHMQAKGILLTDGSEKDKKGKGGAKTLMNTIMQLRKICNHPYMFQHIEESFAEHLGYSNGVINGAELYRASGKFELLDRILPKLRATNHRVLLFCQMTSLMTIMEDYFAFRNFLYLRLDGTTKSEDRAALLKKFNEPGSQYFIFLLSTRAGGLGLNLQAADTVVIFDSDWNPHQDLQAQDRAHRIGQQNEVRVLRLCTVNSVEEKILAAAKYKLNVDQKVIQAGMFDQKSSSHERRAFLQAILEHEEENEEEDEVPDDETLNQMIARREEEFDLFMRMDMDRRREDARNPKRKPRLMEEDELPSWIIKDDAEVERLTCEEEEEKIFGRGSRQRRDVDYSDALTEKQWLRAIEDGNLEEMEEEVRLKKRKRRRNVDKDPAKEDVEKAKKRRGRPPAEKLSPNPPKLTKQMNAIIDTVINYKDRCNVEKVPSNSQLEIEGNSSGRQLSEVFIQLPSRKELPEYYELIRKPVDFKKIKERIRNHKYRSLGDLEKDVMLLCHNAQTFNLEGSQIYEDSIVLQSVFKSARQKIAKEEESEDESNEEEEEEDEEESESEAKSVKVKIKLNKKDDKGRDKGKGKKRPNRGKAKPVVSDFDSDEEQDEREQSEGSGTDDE

| SMILES | Dmax (SMARCA2) | DC50 (SMARCA2) | Dmax (SMARCA4) | DC50 (SMARCA4) |
| --- | --- | --- | --- | --- |
| Cc1ncsc1-c1ccc(CNC(=O)[C@@H]2C[C@@H](O)CN2C(=O)[C@@H](NC(=O)C2CN(Cc3cnc(N4C5CCC4CN(c4cc(-c6ccccc6O)nnc4N)C5)nc3)C2)C(C)(C)C)cc1 [I-385] | 50 to 70% | 501 to 1000 nM | > 90% | < 100 nM |
| COc1ccccc1-c1cc(N2CC3CCC(C2)N3c2ncc(C3CCN(CCCc4ccc5c(c4)n(C)c(=O)n5C4CCC(=O)NC4=O)CC3)cn2)c(N)nn1 (stereo not drawn) [I-326] | < 50% | > 1000 nM | 50 to 70% | 100 to 500 nM |
| Cc1ncsc1-c1ccc(CNC(=O)[C@@H]2C[C@@H](O)CN2C(=O)C(NC(=O)C[C@H]2CC[C@@H](N3CCC(c4cnc(N5C6CCC5CN(c5cc(-c7ccccc7O)nnc5N)C6)nc4)CC3)CC2)C(C)(C)C)cc1 (stereo partly drawn) [I-346] | > 90% | 100 to 500 nM | 70 to 90% | < 100 nM |
| Cn1c(=O)n(C2CCC(=O)NC2=O)c2ccc([C@H]3CC[C@@H](N4CCC(c5nccc(N6C7CCC6CN(c6cc(-c8ccccc8O)nnc6N)C7)n5)CC4)CC3)cc21 (stereo partly drawn) [I-279, 3-(5-((1s,4s)-4-(4-(4-(3-(3-amino-6-(2-hydroxyphenyl)pyridazin-4-yl)-3,8-diazabicyclo[3.2.1]octan-8-yl)pyrimidin-2-yl)piperidin-1-yl)cyclohexyl)-3-methyl-2-oxo-2,3-dihydro-1H-benzo[d]imidazol-1-yl)piperidine-2,6-dion] | > 90% | < 100 nM | > 90% | < 100 nM |
| Cc1ncsc1-c1ccc(CNC(=O)[C@@H]2C[C@@H](O)CN2C(=O)[C@@H](NC(=O)[C@H]2CCN(Cc3cnc(N4C5CCC4CN(c4cc(-c6ccccc6O)nnc4N)C5)nc3)C2)C(C)(C)C)cc1 [I-387] | < 50% | > 1000 nM | > 90% | 501 to 1000 nM |
| Cc1ncsc1-c1ccc(CNC(=O)[C@@H]2C[C@@H](O)CN2C(=O)[C@@H](NC(=O)C2CCC(N3CCC(n4cc(-c5cc(-c6ccccc6O)nnc5N)cn4)CC3)CC2)C(C)(C)C)cc1 (stereo partly drawn) [I-483] | 70 to 90% | 100 to 500 nM | < 50% | > 1000 nM |
| Cc1ncsc1-c1ccc(CNC(=O)[C@@H]2C[C@@H](O)CN2C(=O)[C@@H](NC(=O)Cc2ccc(N3CCC(c4cnc(N5C6CCC5CN(c5cc(-c7ccccc7O)nnc5N)C6)nc4)CC3)cc2)C(C)(C)C)cc1 [I-513] | 70 to 90% | 501 to 1000 nM | 70 to 90% | 100 to 500 nM |
| Cc1ncsc1-c1ccc(CNC(=O)[C@@H]2C[C@@H](O)CN2C(=O)[C@@H](NC(=O)[C@H]2CC[C@H](c3nccc(N4C5CCC4CN(c4cc(-c6ccccc6O)nnc4N)C5)n3)CC2)C(C)(C)C)cc1 [I-363] | > 90% | 100 to 500 nM | > 90% | < 100 nM |
| Cn1c(=O)n(C2CCC(=O)NC2=O)c2ccc(C3CC4(C3)CC(N3CCC(c5cnc(N6C7CCC6CN(c6cc(-c8ccccc8O)nnc6N)C7)nc5)CC3)C4)cc21 (single isomer, unassigned) [I-536 (P2), 3-(5-(6-(4-(2-(3-(3-amino-6-(2-hydroxyphenyl)pyridazin-4-yl)-3,8-diazabicyclo[3.2.1]octan-8-yl)pyrimidin-5-yl)piperidin-1-yl)spiro[3.3]heptan-2-yl)-3-methyl-2-oxo-2,3-dihydro-1H-benzo[d]imidazol-1-yl)piperidine-2,6-dione] |  | < 100 nM |  | < 100 nM |
| Cc1ncsc1-c1ccc(CNC(=O)[C@@H]2C[C@@H](O)CN2C(=O)[C@@H](NC(=O)Cc2ccc(-c3cnc(N4C5CCC4CN(c4cc(-c6ccccc6O)nnc4N)C5)nc3)cc2)C(C)(C)C)cc1 [I-335] | > 90% | < 100 nM | > 90% | < 100 nM |
| Cc1ncsc1-c1ccc(CNC(=O)[C@@H]2C[C@@H](O)CN2C(=O)[C@@H](NC(=O)C2CCN(Cc3cnc(N4C5CCC4CN(c4cc(-c6ccccc6O)nnc4N)C5)nc3)CC2)C(C)(C)C)cc1 [I-338] | > 90% | 100 to 500 nM | > 90% | < 100 nM |
| Cc1ncsc1-c1ccc(CNC(=O)[C@@H]2C[C@@H](O)CN2C(=O)[C@@H](NC(=O)[C@H]2CC[C@@H](N3CCC(n4cc(-c5cc(-c6ccccc6O)nnc5N)cn4)CC3)CC2)C(C)(C)C)cc1 [I-360] | < 50% | > 1000 nM | 50 to 70% | > 1000 nM |
| Cc1ncsc1-c1ccc(CNC(=O)[C@@H]2C[C@@H](O)CN2C(=O)[C@@H](NC(=O)[C@H]2CC[C@H](N3CCC(n4cc(-c5cc(-c6ccccc6O)nnc5N)cn4)CC3)CC2)C(C)(C)C)cc1 [I-361] | 50 to 70% | 501 to 1000 nM | < 50% | > 1000 nM |
| Cc1ncsc1-c1ccc(CNC(=O)[C@@H]2C[C@@H](O)CN2C(=O)[C@@H](NC(=O)[C@@H](C)N2CCC(c3cnc(N4C5CCC4CN(c4cc(-c6ccccc6O)nnc4N)C5)nc3)CC2)C(C)(C)C)cc1 [I-482] | 70 to 90% | 501 to 1000 nM | > 90% | > 1000 nM |
| Cc1ncsc1-c1ccc(CNC(=O)[C@@H]2C[C@@H](O)CN2C(=O)[C@@H](NC(=O)c2ccc(CN3CCC(c4cnc(N5C6CCC5CN(c5cc(-c7ccccc7O)nnc5N)C6)nc4)CC3)cc2)C(C)(C)C)cc1 [I-348] | > 90% | < 100 nM | > 90% | < 100 nM |
| Cc1ncsc1-c1ccc(CNC(=O)[C@@H]2C[C@@H](O)CN2C(=O)[C@@H](NC(=O)c2ccc(C#CCCCN3CCC(Cn4cc(-c5cc(-c6ccccc6O)nnc5N)cn4)CC3)cc2)C(C)(C)C)cc1 [I-506] | > 90% | 100 to 500 nM | > 90% | < 100 nM |
| Cc1ncsc1-c1ccc(CNC(=O)[C@@H]2C[C@@H](O)CN2C(=O)[C@@H](NC(=O)[C@H]2C[C@@H](N3CCC(n4cc(-c5cc(-c6ccccc6O)nnc5N)cn4)CC3)C2)C(C)(C)C)cc1 [I-358] | 70 to 90% | 501 to 1000 nM | > 90% | 100 to 500 nM |
| Nc1nnc(-c2ccccc2O)cc1-c1cnn(C2CCN(C3CCC(Nc4ccc5c(c4)C(=O)N(C4CCC(=O)NC4=O)C5=O)CC3)CC2)c1 (stereo not drawn) [I-323] | > 90% | < 100 nM | > 90% | < 100 nM |
| Cc1ncsc1-c1ccc(CNC(=O)[C@@H]2C[C@@H](O)CN2C(=O)[C@@H](NC(=O)CCCCCC2CCC(N3CCC(Cn4cc(-c5cc(-c6ccccc6O)nnc5N)cn4)CC3)CC2)C(C)(C)C)cc1 (stereo partly drawn) [I-330] | > 90% | 100 to 500 nM | 70 to 90% | < 100 nM |
| Cc1ncsc1-c1ccc(CNC(=O)[C@@H]2C[C@@H](O)CN2C(=O)[C@@H](NC(=O)C[C@H]2CC[C@@H](c3nccc(N4C5CCC4CN(c4cc(-c6ccccc6O)nnc4N)C5)n3)CC2)C(C)(C)C)cc1 [I-365] | > 90% | 100 to 500 nM | > 90% | < 100 nM |
| Nc1nnc(-c2ccccc2O)cc1-c1cnn(C2CCN(C3CCC(Nc4cccc5c4C(=O)N(C4CCC(=O)NC4=O)C5=O)CC3)CC2)c1 (stereo not drawn) [I-322] | > 90% | < 100 nM | > 90% | < 100 nM |
| Cc1ncsc1-c1ccc(CNC(=O)[C@@H]2C[C@@H](O)CN2C(=O)[C@@H](NC(=O)CCN2CCN(Cc3ccc(-c4cc(-c5ccccc5O)nnc4N)cc3)CC2)C(C)(C)C)cc1 [I-474] | < 50% | > 1000 nM | 70 to 90% |  |
| Nc1nnc(-c2ccccc2O)cc1-c1cnn(C2CCN(C3CCC(CNc4cccc5c4C(=O)N(C4CCC(=O)NC4=O)C5=O)CC3)CC2)c1 (stereo not drawn) [I-324] | 70 to 90% | < 100 nM | 70 to 90% | < 100 nM |
| Nc1nnc(-c2ccccc2O)cc1N1CC2CCC(C1)N2c1ncc(C2CCN(CCCCCNC(=O)COc3ccc4c(c3)CCCN4C(=O)CCl)CC2)cn1 [I-524] | < 50% | > 1000 nM | 70 to 90% | > 1000 nM |

From patent US12624044B2, “SMARCA degraders and uses thereof” (Kymera Therapeutics, Inc., priority 2019, dated 2026)
